The target in experiment [1] is Lysine-specific histone demethylase 1A (Homo sapiens, UniProt O60341). In words: Inhibition of human recombinant LSD1 using fluorogenic ADHP as substrate preincubated for 30 mins followed by substrate addition measured after 10 mins by fluorescence assay.
The test system of experiment [2] is U-87 MG. In words: Antiproliferative activity against human U87MG cells assessed as reduction in cell viability measured after 72 hrs by MTT assay.
The subject of experiment [3] is A549. Description: Antiproliferative activity against human A549 cells overexpressing LSD1 assessed as reduction in cell viability measured after 72 hrs by MTT assay. The conditions noted are these: A549, 72 h. On the technique in general: Formazan colour is commonly taken as a measure of viable cells.
For experiment [4], the target named is T1, Amine oxidase [flavin-containing] B (Homo sapiens, UniProt P27338).
T1 sequence (P27338 whole entry): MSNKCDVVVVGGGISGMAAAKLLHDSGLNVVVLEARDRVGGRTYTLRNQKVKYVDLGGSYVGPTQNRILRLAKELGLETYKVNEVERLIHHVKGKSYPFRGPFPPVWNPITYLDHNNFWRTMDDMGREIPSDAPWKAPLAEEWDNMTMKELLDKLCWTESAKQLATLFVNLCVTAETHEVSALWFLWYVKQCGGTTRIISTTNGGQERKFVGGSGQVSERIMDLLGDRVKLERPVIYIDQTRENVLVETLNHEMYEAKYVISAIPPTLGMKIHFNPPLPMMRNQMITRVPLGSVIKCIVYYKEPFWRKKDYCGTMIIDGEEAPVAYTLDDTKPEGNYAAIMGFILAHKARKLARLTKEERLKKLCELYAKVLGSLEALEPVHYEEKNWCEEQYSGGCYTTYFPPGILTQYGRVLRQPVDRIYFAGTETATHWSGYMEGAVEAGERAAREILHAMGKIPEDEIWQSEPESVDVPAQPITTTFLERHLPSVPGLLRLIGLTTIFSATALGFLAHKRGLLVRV
In words: Inhibition of human recombinant MAO-B expressed in baculovirus infected BTI cells using luciferin derived luminogenic substrate measured after 20 mins by luminescence assay.

Experiment [5] has as its target T2, Amine oxidase [flavin-containing] A (Homo sapiens, UniProt P21397).
T2 sequence (P21397 whole entry): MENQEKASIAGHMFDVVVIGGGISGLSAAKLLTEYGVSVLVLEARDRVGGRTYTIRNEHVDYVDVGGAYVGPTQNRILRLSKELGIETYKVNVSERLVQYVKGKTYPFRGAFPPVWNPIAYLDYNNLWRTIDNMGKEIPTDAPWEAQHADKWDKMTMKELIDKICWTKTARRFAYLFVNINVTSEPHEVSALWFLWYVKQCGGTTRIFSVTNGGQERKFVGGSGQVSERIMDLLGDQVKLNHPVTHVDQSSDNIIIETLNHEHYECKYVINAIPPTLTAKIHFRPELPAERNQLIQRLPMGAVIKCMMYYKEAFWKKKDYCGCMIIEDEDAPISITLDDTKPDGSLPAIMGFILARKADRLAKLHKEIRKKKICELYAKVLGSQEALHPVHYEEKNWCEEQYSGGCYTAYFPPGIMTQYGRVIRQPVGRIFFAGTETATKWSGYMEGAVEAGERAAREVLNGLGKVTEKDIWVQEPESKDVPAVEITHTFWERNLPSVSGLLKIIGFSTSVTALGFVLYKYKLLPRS
In words: Inhibition of human recombinant MAO-A expressed in baculovirus infected BTI cells using luciferin derived luminogenic substrate measured after 20 mins by luminescence assay.

By IC50 is commonly meant the concentration that gives 50% inhibition. As to `COc1ccc(/C=C/C(=O)Nc2cccc(OCC3CCNCC3)c2)cc1OC`, in experiment [1], the IC50 is over 50 µM.
Same read-out and setting: under `COc1cc(/C=C/C(=O)Nc2cccc(OCC3CCNCC3)c2)cc(OC)c1OC` stands over 50 µM.
In the case of `COc1cc(/C=C/C(=O)Nc2cccc(OCC3CCNCC3)c2)ccc1O`, the half-maximal inhibitory concentration (IC50) amounted to 31 µM in experiment [2] and 24.5 µM in experiment [3].
The like results for `COc1cc(/C=C/C(=O)Nc2ccc(CC(=O)NN)cc2)ccc1O` were, in that order, 49.3 µM and 30.3 µM.
As for `COc1cc(/C=C/C(=O)Nc2ccc(C(=O)NO)cc2)ccc1O`, the concentration for half-maximal inhibition (IC50) in experiment [2] was over 50 µM; in experiment [3] it was 32.5 µM.
The like results for `COc1cc(/C=C/C(=O)Nc2ccc(NC(=N)N)cc2)ccc1O` were, in that order, over 50 µM and over 50 µM.
On to `COc1cc(/C=C/C(=O)Nc2cccc(COc3ccc(OC4CCNCC4)cc3)c2)ccc1O`, for which the IC50 in experiment [2] was over 50 µM; in experiment [3], 28.5 µM.
With `O=C(/C=C/c1ccc(O)cc1)Nc1cccc(OCC2CCNCC2)c1`, the IC50 in experiment [4] is over 50 µM; in experiment [5], over 50 µM; in experiment [2], over 50 µM; in experiment [3], 9.33 µM.
For `N#Cc1ccc(/C=C/C(=O)Nc2cccc(OCC3CCNCC3)c2)cc1`, the IC50 in experiment [1] is over 50 µM.
With `COc1cc(/C=C/C(=O)Nc2ccc(N)cc2)ccc1O`, the IC50 in experiment [2] and in experiment [3] was over 50 µM each time.
Turning to `COC(=O)Cc1ccc(NC(=O)/C=C/c2ccc(OC(C)=O)c(OC)c2)cc1`, the concentration for half-maximal inhibition (IC50) in experiment [1] is over 50 µM.
As for `Cc1ccc(-c2cc(/C=C/C(=O)Nc3cccc(OCC4CCNCC4)c3)ccc2O)cc1`, in experiment [1], the IC50 is over 50 µM.
Same read-out and setting: in the case of `O=C(/C=C/c1ccc(F)cc1)Nc1cccc(OCC2CCNCC2)c1` it was over 50 µM.
As to `COc1cc(/C=C/C(=O)Nc2ccccc2COc2ccc(OC3CCNCC3)cc2)ccc1O`, the half-inhibitory concentration (IC50) is over 50 µM in experiment [4], over 50 µM in experiment [5], 14.2 µM in experiment [2] and 4.42 µM in experiment [3].
In the case of `O=C(/C=C/c1cccc(C(F)(F)F)c1)Nc1cccc(OCC2CCNCC2)c1`, in experiment [1], the IC50 was over 50 µM.
With `COc1cc(/C=C/C(=O)CC(=O)/C=C/c2ccc(O)c(OC)c2)ccc1O` [CURCUMIN], the IC50 in experiment [1] was 9.6 µM.
